Measurements published in patent publication US6632616B2, “Compounds that selectively bind to expanded polyglutamine repeat domains and methods of use thereof” (Duke University, priority 2000, dated 2003).
“Also recorded” adds a separate entry of the source. Read-outs that look alike come from different tables or passages of the source. No end group written: not given here.

Columns and labels:
[1] = test system: thio-Q62; assay: Thioredoxin-polyglutamine turbidity (aggregation) assay, thio-Q62; type: biochemical; settings: for Ability to Inhibit Aggregation: 62 glutamines, 10 days; for inhibition of thio-Q62 aggregation (in words): turbidity at 405 nm, FIG. 2
Experimental: (§1) Turbidity assays were performed in 200 μl reactions consisting of thioredoxin-polyglutamine in PBS in 96-well, low protein binding plates. Plates were incubated at 4° C. and turbidity measured at 405 nm on a Thermo Max plate reader (Molecular Devices).
(§2) Peptides were synthesized at the Howard Hughes Medical Institute peptide sequencing facility at Duke University with an acetylated amino terminus and protection of tryptophan with BOC during synthesis. Identical results were obtained with peptides obtained from Bio-Synthesis Inc. (Lewisville, Tex.). Stock solutions of peptides were prepared fresh daily by dissolving in dimethyl sulfoxide at 2.5 mM and incubated with thioredoxin-polyglutamine protein at 0.25-25 μM.
(§3) To monitor thioredoxin-polyglutamine protein aggregation a turbidometric assay was developed, similar to the assays commonly used to study microtubule assembly and β-amyloid aggregation (Jarrett, J. T. et al. (1993) Biochem 32, 4693-4697; Sloboda, R. D. et al. (1976) Biochem 15, 4497-4505). Solutions of thio-Q62 and 81 protein increased turbidity in a polyglutamine length-, time- and concentration-dependent manner (FIG. 1B and C; Time dependence of aggregation of thioredoxin-polyglutamine with 81 glutamines not shown). […] The pelleted and retained material was confirmed as thioredoxin-polyglutamine fusion protein containing 62 or 81 glutamines on western blots probed with anti-thioredoxin or anti-polyglutamine antibody (not shown). In contrast, thioredoxin-polyglutamine protein containing 19 or 35 glutamines (thio-Q19 or 35) was not pelleted by centrifugation and was not trapped by a 0.22 μm filter.

[2] = test system: thio-Q19 or 35; assay: Thioredoxin-polyglutamine turbidity assay, nonpathologic thio-Q19 or 35; type: biochemical
Experimental: as §1, §2, §3

[3] = test system: Qn-YFP; assay: Polyglutamine-YFP (Qn-YFP) aggregate formation in co-transfected COS-7 cells, all lengths; type: cell-based; settings: co-expression, 48 hours after transfection, FIG. 4
Experimental: (§4) COS-7 cells examined 48 hours after transfection using a Zeiss fluorescence microscope with the CFP/YFP filter set from Omega Optical Inc. The percentage of cells with aggregates was calculated by counting the number of transfected cells containing aggregate and dividing by the total number of transfected cells multiplied times 100. In each experiment at least 200 transfected cells were counted. Experiments were repeated at least four times. Error bars represent standard errors. *=p<0.05;**=p<0.01 (Student's t-test)
The CAG repeat of the Qn-GFP vector (Onodera, O. et al. (1996) FEBS Letters 399, 135-139) were inserted into the XhoI and EcoRI sites of the pEYFP-N1 vector (Clontech, Palo Alto, Calif.) to construct the Qn-YFP vectors. The polyglutamine-binding peptide and control constructs were prepared by ligating synthetic oligonucleotides into the XhoI and BamHI sites of the pECFP-N1 vector (Clontech) to obtain glutamine binding peptide 1-CFP (QBP1-CFP), scrambled QBP1-CFP (SCR-CFP), and a computer-generated random peptide-CFP (RAN)-CFP. The insert of QBP1-CFP was duplicated by PCR to obtain a tandem repeat of QBP1-CFP ((QBP1)2-CFP). The sequence of all constructs was confirmed by DNA sequencing. […]
(§5) COS-7 cells were grown and maintained in Dulbecco's modified Eagles' medium (DMEM) supplemented with 10% fetal calf serum (FCS). […] Cells were examined 48 hours after transfection using a Zeiss fluorescence microscope equipped with YFP/CFP filter sets (Omega Optical Inc., Brattleboro, Vt.). The percentage of cells with aggregates was calculated by dividing the number of cells with aggregates by the total number of fluorescent cells, multiplied by 100. […] Cells were incubated with 5 μM ethidium homodimer for 30 minutes (37° C.) and then examined under a fluorescence microscope equipped with a rhodamine filter set. Cells with nuclear fluorescence were counted as dead. In each experiment at least 200 transfected cells were counted. […]

[4] = test system: Q57-YFP; assay: Q57-YFP aggregate formation in co-transfected COS-7 cells; type: cell-based; settings: compared to cells co-expressing RAN-CFP; COS-7, 48 hours
Experimental: as §4, with “t-test) […]” for “t-test)”
as §5

[5] = test system: Q81-YFP; assay: Q81-YFP aggregate formation in co-transfected COS-7 cells; type: cell-based; settings: COS-7, 48 hours
Experimental: as §4, with “t-test) […]” for “t-test)”
as §5

[6] = test system: Q57-YFP induced cell death; assay: Q57-YFP induced cell death in co-transfected COS-7 cells (ethidium homodimer); type: cell-based; settings: peptides fused to CFP, co-expressed; COS-7, 48 hours; ethidium homodimer
Experimental: FIG. 5. […] Open bar=cells co-transfected with Q57-YFP and RAN-CFP. Hatched bar=cells co-transfected with Q57-YFP and SCR-CFP. Filled bar=cells co-transfected with Q57-YFP and QBP1-CFP. Dotted bar=cells co-transfected with Q57-YFP and (QBPI)2-CFP. COS-7 cells examined 48 hours after transfection using a Zeiss fluorescence microscope with rhodamine filter set. The percentage of dead cells was calculated by counting the number of transfected cells stained with ethidium homodimer and dividing by the total number of transfected cells multiplied times 100. In each experiment at least 200 transfected cells were counted. Experiments were repeated at least three times. Error bars represent standard errors. *=p<0.05; **=p<0.01 (Student's t-test).
(§6) COS-7 cells were grown and maintained in Dulbecco's modified Eagles' medium (DMEM) supplemented with 10% fetal calf serum (FCS). Cells were transfected with Effectene according to manufacturer's instructions (Qiagen GmbH, Hilden, Germany). Cells were examined 48 hours after transfection using a Zeiss fluorescence microscope equipped with YFP/CFP filter sets (Omega Optical Inc., Brattleboro, Vt.). The percentage of cells with aggregates was calculated by dividing the number of cells with aggregates by the total number of fluorescent cells, multiplied by 100. Cell viability was examined 48 hours after transfection using ehtidium homodimer (Molecular Probes, Eugene, Oreg.). Cells were incubated with 5 μM ethidium homodimer for 30 minutes (37° C.) and then examined under a fluorescence microscope equipped with a rhodamine filter set. Cells with nuclear fluorescence were counted as dead. In each experiment at least 200 transfected cells were counted. Cells expressing random peptide-CFP (RAN-CFP) and polyglutamine-YFP (Qn-YFP) were used as a control to calculate the relative difference in aggregate formation and cell death. Experiments were repeated at least four times.
The relationship between polyglutamine protein aggregation and cell death is controversial. To determine whether QBP1 or tandem-QBP1 inhibit polyglutamine-induced cell death, cell membrane permeability to ethidium homodimer was assayed. The membranes of living cells are impermeable to ethidium homodimer and permeability to ethidium homodimer is a well-established measure of cell death. Ethidium homodimer undergoes a 30-fold increase in fluorescence upon binding to nucleic acid allowing easy detection with a fluorescence microscope using a rhodamine filter. QBP1 and tandem QBP1 ((QBP1)2) fused to CFP inhibit Q57-YFP induced cell death (FIG. 5). […] Similar results have also been observed with Q45- and Q81-YFP (not shown).

[7] = test system: Q81-YFP; assay: Peptides added to transfected COS 7 cells expressing Q81-YFP: aggregation; type: cell-based; settings: peptide added to cells
Description: (§7) Several proteins can ferry peptides or proteins into cells through the plasma membrane including HIV transactivator protein (TAT) (SEQ ID NO:37), antennapedia (SEQ ID NO:38), and herpes simplex virus type 1 protein 22 (SEQ ID NO:39) (Prochiantz, Curr Opin Cell Biol. 12:400-406 (2000)). […] The arginine-rich domains of these proteins are sufficient to transport some intact proteins even when fused to non-native proteins. The ability of polyglutamine-binding peptides fused to a TAT fragment to enter transfected COS 7 cells and inhibit polyglutamine aggregation and cell death was examined.

[8] = test system: COS 7 cells expressing Q81-YFP; assay: Peptides added to transfected COS 7 cells expressing Q81-YFP: cell death; type: cell-based; settings: peptide added to cells
Description: as §7

[9] = test system: Q81-YFP; assay: Co-localization with Q81-YFP aggregates in co-transfected COS-7 cells; type: cell-based; settings: co-expression, 48 hours after transfection
Experimental: The CAG repeat of the Qn-GFP vector (Onodera, O. et al. (1996) FEBS Letters 399, 135-139) were inserted into the XhoI and EcoRI sites of the pEYFP-N1 vector (Clontech, Palo Alto, Calif.) to construct the Qn-YFP vectors. The polyglutamine-binding peptide and control constructs were prepared by ligating synthetic oligonucleotides into the XhoI and BamHI sites of the pECFP-N1 vector (Clontech) to obtain glutamine binding peptide 1-CFP (QBP1-CFP), scrambled QBP1-CFP (SCR-CFP), and a computer-generated random peptide-CFP (RAN)-CFP. The insert of QBP1-CFP was duplicated by PCR to obtain a tandem repeat of QBP1-CFP ((QBP1)2-CFP). The sequence of all constructs was confirmed by DNA sequencing. The first methionine of YFP or CFP was changed to isoleucine by PCR site-directed mutagenesis to eliminate translation of the fluorescent protein without the polyglutamine domain. The sizes of the fluorescent fusion proteins were confirmed by western blotting.
as §6, with “Experiments were repeated at least four times.” left out

[10] = 5 μm peptide and 15 μM thio-polyglutamine
[11] = peptides at 1 and 10 microMolar

Sequence of Q81-YFP (as listed by the source): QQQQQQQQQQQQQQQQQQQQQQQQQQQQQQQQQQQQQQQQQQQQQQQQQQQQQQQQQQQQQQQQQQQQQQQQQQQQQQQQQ
Sequence of thio-Q62 (as listed by the source): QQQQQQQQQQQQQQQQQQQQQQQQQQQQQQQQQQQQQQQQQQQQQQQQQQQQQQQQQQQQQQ
Sequence of Q57-YFP (as listed by the source): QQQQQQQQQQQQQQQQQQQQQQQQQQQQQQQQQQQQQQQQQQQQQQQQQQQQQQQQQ

WKWWPWKWW was tested, and the “Ability to Inhibit Aggregation” value [1, 10] was “+++ (+++ = 75% inhibition)”.
For “WKWWVWKWWP-TAT (WKWWVWKWWPGGYGRKKRRQRRR)”, the “Ability to Inhibit Aggregation” value ([1]; TAT-fused peptides, 10 μm peptide and 15 μM thio-polyglutamine) was “++++ (++++ = full inhibition)”.
For WDWWPGIFD, the “Ability to Inhibit Aggregation” value [1, 10] was “++ (++ = 50% inhibition)”.
With WVWWPGIFD the “Ability to Inhibit Aggregation” value [1, 10] was “+++ (+++ = 75% inhibition)”.
With SNWKWWPGIFD [QBP1] the “reversal of thio-Q62 aggregation” value ([1]; peptide added after aggregation) was “did not reverse aggregation”, the “inhibition of thio-Q62 aggregation (in words)” value (from here on “inhibition … (in words)”) [1] was “potently inhibited” and the “inhibition … (in words)” value ([1]; listed as QBP 1) was “inhibits thio-Q62 aggregation in a concentration-dependent pattern”. The “effect on turbidity of nonpathologic thio-Q19 or 35” value [2] was “no effect”, the “effect on percentage of cells with polyglutamine aggregates” value [3] was “decreases the number of cells containing polyglutamine aggregates” and the “reduction of Q57-YFP aggregation” value [4] was 26%. For the same substance, the “effect on Q81-YFP aggregation (in words)” value [5] was “did not reach statistical significance” and the “inhibition of Q57-YFP induced cell death” value [6] was “inhibit; also recorded: inhibits polyglutamine-mediated cell death”.
WKWWPGIF was tested, and the “inhibition of polyglutamine-thioredoxin aggregation (FIG. 6 and 7)” value (“inhibition … (FIG. 6 and 7)” below) [1] was “retains full inhibitory activity”.
With WKWWPGIFD the “Ability to Inhibit Aggregation” value [1, 10] was “++++ (++++ = full inhibition)”, the “effect on aggregation in cells (in words)” value [7] was “no effect” and the “effect on cell death (in words)” value [8] was “no effect”.
With “RAN-CFP: computer-generated random peptide fused to cyan fluorescent protein (LSLMEFGCRGA; also: fused to cyan fluorescent protein)” the “co-localization with Q81-YFP aggregates” value [9] was “did not co-localize”.
In the case of WKWWPFD, the “inhibition … (FIG. 6 and 7)” value [1, 11] is reported as “some activity at high concentration”.
For “WKWWFD [QBP1-M6FD, QBP1-M7FD with the proline removed]”, the “inhibition … (FIG. 6 and 7)” value [1, 11] was “significant loss of activity”.
In the case of “LSLMEFGCRGA [RAN, computer-generated random 11 amino acid peptide, reference compound]”, the “inhibition … (in words)” value [1] is reported as “did not inhibit aggregation” and the “effect on turbidity of nonpathologic thio-Q19 or 35” value [2] is reported as “no effect”.
For “(QBP1)2-CFP: tandem repeat of QBP1 fused to cyan fluorescent protein (SNWKWWPGIFDSNWKWWPGIFD; also: fused to cyan fluorescent protein)”, the “effect on percentage of cells with polyglutamine aggregates” value [3] was “more effective”.
